Reference: PubChem BioAssay AID1918936 (Molecular Pharmacology Branch, DTP, NCI, 2023)
“And” between values parts separate entries of the source, which are not always exact repeats. Identical values can stand only once.

Test system: 349418-098-R-PDC complex spheroid viability
Assay: Anticancer human tumor 349418-098-R-PDC patient-derived lung adenocarcinoma cell line growth inhibition
Conditions: for viability, T/C: stronger effect = lower value
How it was run: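 Drug combinations with the LSD1 inhibitor iadademstat tested on tumor cells co-cultured as spheroids with endothelial cells and mesenchymal stem cells. Concentrations descended in half-log increments from clinical Cmax or 10 microM.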

[1] = curve of first compound, second compound 0.1 µM
[2] = curve of first compound, second compound 0.316 µM
[3] = curve of first compound, second compound 1 µM
[4] = curve of first compound, second compound 3.16 µM
[5] = curve of first compound, second compound 10 µM
[6] = second compound 0.1 µM, first compound 0.00949 µM
[7] = second compound 0.1 µM, first compound 0.03 µM
[8] = second compound 0.1 µM, first compound 0.0949 µM
[9] = second compound 0.1 µM, first compound 0.3 µM
[10] = second compound 0.1 µM, first compound 0.949 µM
[11] = second compound 0.1 µM, first compound 3 µM
[12] = second compound 0.316 µM, first compound 0.00949 µM
[13] = second compound 0.316 µM, first compound 0.03 µM
[14] = second compound 0.316 µM, first compound 0.0949 µM
[15] = second compound 0.316 µM, first compound 0.3 µM
[16] = second compound 0.316 µM, first compound 0.949 µM
[17] = second compound 0.316 µM, first compound 3 µM
[18] = second compound 1 µM, first compound 0.00949 µM
[19] = second compound 1 µM, first compound 0.03 µM
[20] = second compound 1 µM, first compound 0.0949 µM
[21] = second compound 1 µM, first compound 0.3 µM
[22] = second compound 1 µM, first compound 0.949 µM
[23] = second compound 1 µM, first compound 3 µM
[24] = second compound 3.16 µM, first compound 0.00949 µM
[25] = second compound 3.16 µM, first compound 0.03 µM
[26] = second compound 3.16 µM, first compound 0.0949 µM
[27] = second compound 3.16 µM, first compound 0.3 µM
[28] = second compound 3.16 µM, first compound 0.949 µM
[29] = second compound 3.16 µM, first compound 3 µM
[30] = second compound 10 µM, first compound 0.00949 µM
[31] = second compound 10 µM, first compound 0.03 µM
[32] = second compound 10 µM, first compound 0.0949 µM
[33] = second compound 10 µM, first compound 0.3 µM
[34] = second compound 10 µM, first compound 0.949 µM
[35] = second compound 10 µM, first compound 3 µM
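Note: spheroids exposed to agents for seven days before readout.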
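Throughout, for viability, T/C: 100% = DMSO vehicle control wells.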

Compound `Nc1ccccc1NC(=O)c1ccc(CNC(=O)OCc2cccnc2)cc1` + NC1CC1c1ccc(-c2cccc(O)c2)cc1 has an IC50 [1] of 0.0837 µM, an IC50 [2] of 0.102 µM and an IC50 [3] of 0.121 µM. It also gave an IC50 [4] of 0.145 µM, an IC50 [5] of 0.136 µM and a viability, T/C [6] of 94%. It also gave a viability, T/C [7] of 68.2%, a viability, T/C [8] of 53.2% and a viability, T/C [9] of 20.4%. The viability, T/C [10] was 6.54%, the viability, T/C [11] was 3.26% and the viability, T/C [12] was 102%. For the same compound, the viability, T/C [13] was 84.8%, the viability, T/C [14] was 53.8% and the viability, T/C [15] was 17.8%. The viability, T/C [16] was 6.05%, the viability, T/C [17] was 3.43% and the viability, T/C [18] was 106%. For the same compound, the viability, T/C [19] was 83.1%, the viability, T/C [20] was 61.2% and the viability, T/C [21] was 22.6%. The viability, T/C [22] was 6.06%, the viability, T/C [23] was 3.46% and the viability, T/C [24] was 102%. For the same compound, the viability, T/C [25] was 84.4%, the viability, T/C [26] was 67.9% and the viability, T/C [27] was 23.9%. For the same compound, the viability, T/C [28] was 6.45%, the viability, T/C [29] was 2.77% and the viability, T/C [30] was 93.3%. For the same compound, the viability, T/C [31] was 81.7%, the viability, T/C [32] was 64.3% and the viability, T/C [33] was 21.7%. For the same compound, the viability, T/C [34] was 5.86% and the viability, T/C [35] was 2.77%.

With `O=C(C=Cc1cccc(S(=O)(=O)Nc2ccccc2)c1)NO` the viability, T/C (compound 0.00949 µM) was 81.2% and 75%, the viability, T/C (compound 0.03 µM) was 71.6% and 70.5% and the viability, T/C (compound 0.0949 µM) was 58.6% and 19.1%. The viability, T/C (compound 0.3 µM) was 17.8% and 2.96%, the viability, T/C (compound 0.949 µM) was 3.74% and 0.75% and the IC50 (curve of compound) was 0.118 µM and 0.0527 µM.

For `Nc1ccccc1NC(=O)c1ccc(CNC(=O)OCc2cccnc2)cc1` + NC1CCC(NC2CC2c2ccccc2)CC1, the IC50 [1] was 0.244 µM, the IC50 [2] was 0.279 µM and the IC50 [3] was 0.224 µM. For the same compound, the IC50 [4] was 0.314 µM, the IC50 [5] was 0.269 µM and the viability, T/C [6] was 106%. The viability, T/C [7] was 88.6%, the viability, T/C [8] was 76.2% and the viability, T/C [9] was 46.2%. It also gave a viability, T/C [10] of 15.4%, a viability, T/C [11] of 5.1% and a viability, T/C [12] of 102%. For the same compound, the viability, T/C [13] was 97.3%, the viability, T/C [14] was 81.8% and the viability, T/C [15] was 48.9%. The viability, T/C [16] was 15.4%, the viability, T/C [17] was 5.32% and the viability, T/C [18] was 117%. The viability, T/C [19] was 85.9%, the viability, T/C [20] was 73.6% and the viability, T/C [21] was 46.3%. The viability, T/C [22] was 15.9%, the viability, T/C [23] was 5.11% and the viability, T/C [24] was 104%. It also gave a viability, T/C [25] of 85.8%, a viability, T/C [26] of 83.6% and a viability, T/C [27] of 53%. The viability, T/C [28] was 15.6%, the viability, T/C [29] was 5.33% and the viability, T/C [30] was 96.1%. It also gave a viability, T/C [31] of 91.1%, a viability, T/C [32] of 75.5% and a viability, T/C [33] of 50.2%. The viability, T/C [34] was 12.7% and the viability, T/C [35] was 4.33%.

For `CCc1c2c(nc3ccc(O)cc13)-c1cc3c(c(=O)n1C2)COC(=O)[C@]3(O)CC` + NC1CC1c1ccc(-c2cccc(O)c2)cc1, the IC50 [1] was < 0.000949 µM, the IC50 [2] was < 0.000949 µM and the IC50 [3] was < 0.000949 µM. The IC50 [4] was < 0.000949 µM, the IC50 [5] was < 0.000949 µM and the viability, T/C (second compound 0.1 µM, first compound 0.000949 µM) was 3.35%. The viability, T/C (second compound 0.1 µM, first compound 0.003 µM) was 2.46%, the viability, T/C [6] was 1.32% and the viability, T/C [7] was 1.41%. It also gave a viability, T/C [8] of 1.92%, a viability, T/C [9] of 1.96% and a viability, T/C (second compound 0.316 µM, first compound 0.000949 µM) of 3.19%. The viability, T/C (second compound 0.316 µM, first compound 0.003 µM) was 2.09%, the viability, T/C [12] was 1.26% and the viability, T/C [13] was 1.31%. It also gave a viability, T/C [14] of 1.59%, a viability, T/C [15] of 1.98% and a viability, T/C (second compound 1 µM, first compound 0.000949 µM) of 3.23%. The viability, T/C (second compound 1 µM, first compound 0.003 µM) was 2.09%, the viability, T/C [18] was 1.23% and the viability, T/C [19] was 1.48%. For the same compound, the viability, T/C [20] was 1.67%, the viability, T/C [21] was 1.92% and the viability, T/C (second compound 3.16 µM, first compound 0.000949 µM) was 3.45%. The viability, T/C (second compound 3.16 µM, first compound 0.003 µM) was 2.17%, the viability, T/C [24] was 1.37% and the viability, T/C [25] was 1.52%. It also gave a viability, T/C [26] of 1.8%, a viability, T/C [27] of 1.56% and a viability, T/C (second compound 10 µM, first compound 0.000949 µM) of 3.42%. It also gave a viability, T/C (second compound 10 µM, first compound 0.003 µM) of 1.99%, a viability, T/C [30] of 1.52% and a viability, T/C [31] of 1.31%. The viability, T/C [32] was 1.59% and the viability, T/C [33] was 1.47%.

`CCN(c1cc(-c2ccc(CN3CCOCC3)cc2)cc(C(=O)NCc2c(C)cc(C)[nH]c2=O)c1C)C1CCOCC1` + NC1CC1c1ccc(-c2cccc(O)c2)cc1 was tested, and the IC50 [1] was 0.603 µM, the IC50 [2] was 0.65 µM and the IC50 [3] was 0.77 µM. It also gave an IC50 [4] of 0.758 µM, an IC50 [5] of 0.499 µM and a viability, T/C [6] of 116%. The viability, T/C [7] was 107%, the viability, T/C [8] was 109% and the viability, T/C [9] was 74%. It also gave a viability, T/C [10] of 34.4%, a viability, T/C [11] of 11.4% and a viability, T/C [12] of 120%. It also gave a viability, T/C [13] of 121%, a viability, T/C [14] of 113% and a viability, T/C [15] of 77%. For the same compound, the viability, T/C [16] was 37.5%, the viability, T/C [17] was 11.9% and the viability, T/C [18] was 123%. For the same compound, the viability, T/C [19] was 124%, the viability, T/C [20] was 120% and the viability, T/C [21] was 89.2%. For the same compound, the viability, T/C [22] was 42%, the viability, T/C [23] was 14% and the viability, T/C [24] was 126%. It also gave a viability, T/C [25] of 121%, a viability, T/C [26] of 122% and a viability, T/C [27] of 89.1%. The viability, T/C [28] was 41.1%, the viability, T/C [29] was 14.3% and the viability, T/C [30] was 107%. It also gave a viability, T/C [31] of 102%, a viability, T/C [32] of 107% and a viability, T/C [33] of 70.8%. It also gave a viability, T/C [34] of 23.8% and a viability, T/C [35] of 11.2%.
